Reference: PMC4826192 (Oncotarget, 2015)

Test system: MPNST (malignant peripheral nerve sheath tumor) cells
Assay: Cell viability assay (Dojindo CCK-8)
Conditions: 72 hours

Cc1ccc(NC(=O)c2ccc(CN3CCN(C)CC3)cc2)cc1Nc1nccc(-c2cccnc2)n1 [imatinib] was tested, and the “anti-proliferative effect, comparison of TKIs” value (500 nmol/L) was “anti-proliferative effect similar to MGCD516”.

Cc1ccc(Nc2nccc(N(C)c3ccc4c(C)n(C)nc4c3)n2)cc1S(N)(=O)=O [pazopanib] was tested, and the “inhibition of MPNST cell proliferation, pazopanib versus MGCD516” value was “similar”.
